Experimental data: PubChem BioAssay (NCI)
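Cultured in 96-well plates, cells were exposed to test compound for 48 hours across five concentrations. The concentration for 50% growth inhibition is given as GI50. At the TGI there is no net growth.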

Assays:
Assay in all cases: inhibition of tumour cell growth, NCI panel, 48 h
[1] = system: MCF7 breast
[2] = system: NCI-H226 lung
[3] = system: CCRF-CEM leukemia
[4] = system: COLO 205 colon
[5] = system: A498 renal
[6] = system: HCC-2998 colon
[7] = system: MALME-3M melanoma
[8] = system: KM12 colon
[9] = system: 786-0 renal
[10] = system: M14 melanoma
[11] = system: TK-10 renal
[12] = system: HCT-15 colon
[13] = system: SR leukemia
[14] = system: SF-268 CNS
[15] = system: SW-620 colon
[16] = system: SK-MEL-2 melanoma
[17] = system: NCI-H460 lung
[18] = system: CAKI-1 renal
[19] = system: HCT-116 colon
[20] = system: HT29 colon
[21] = system: SF-539 CNS
[22] = system: PC-3 prostate
[23] = system: OVCAR-5 ovarian
[24] = system: MDA-MB-435
[25] = system: DU-145 prostate
[26] = system: RXF 393 renal
[27] = system: UACC-62 melanoma
[28] = system: U251 CNS
[29] = system: HOP-92 NSCLC
[30] = system: IGROV1 ovarian
[31] = system: UO-31 renal
[32] = system: MOLT-4 leukemia
[33] = system: HOP-62 NSCLC
[34] = system: A549 NSCLC
[35] = system: HL-60(TB) leukemia
[36] = system: SF-295 CNS
[37] = system: EKVX NSCLC
[38] = system: OVCAR-3 ovarian
[39] = system: OVCAR-4 ovarian
[40] = system: SNB-19 CNS
[41] = system: NCI/ADR-RES ovarian
[42] = system: HS 578T breast
[43] = system: BT-549 breast
[44] = system: ACHN renal
[45] = system: NCI-H522 lung
[46] = system: SK-MEL-5 melanoma
[47] = system: K-562 leukemia
[48] = system: OVCAR-8 ovarian
[49] = system: LOX IMVI melanoma
[50] = system: T-47D breast
[51] = system: SK-OV-3 ovarian
[52] = system: RPMI-8226 leukemia
[53] = system: SNB-75 CNS
[54] = system: MDA-MB-231 breast
[55] = system: SN12C renal
[56] = system: UACC-257 melanoma
[57] = system: SK-MEL-28 melanoma

O=C(Nc1cc(Cl)cc(Cl)c1)Nc1ccc2oc(=O)ccc2c1
GI50 [1]: 2.28 µM
TGI [1]: 8.09 µM
GI50 [2]: 2.67 µM
TGI [2]: 8.81 µM
GI50 [3]: 2.3 µM
TGI [3]: 7.62 µM
GI50 [4]: 2.19 µM
TGI [4]: 4.63 µM
GI50 [5]: 2.59 µM
TGI [5]: 7.07 µM
GI50 [6]: 3.24 µM
TGI [6]: 11.4 µM
GI50 [7]: 2.64 µM
TGI [7]: 7.42 µM
GI50 [8]: 3.05 µM
TGI [8]: 10.8 µM
GI50 [9]: 3.08 µM
TGI [9]: 11.7 µM
GI50 [10]: 3.39 µM
TGI [10]: 11.9 µM
GI50 [11]: 3.12 µM
TGI [11]: 9.51 µM
GI50 [12]: 2.69 µM
TGI [12]: 10.9 µM
GI50 [13]: 1.98 µM
TGI [13]: 5.82 µM
GI50 [14]: 3.91 µM
TGI [14]: 17.2 µM
GI50 [15]: 3.5 µM
TGI [15]: 13.5 µM
GI50 [16]: 2.03 µM
TGI [16]: 4.84 µM
GI50 [17]: 2.27 µM
TGI [17]: 7.39 µM
GI50 [18]: 2.28 µM
TGI [18]: 7.49 µM
GI50 [19]: 2.31 µM
TGI [19]: 8.7 µM
GI50 [20]: 2.59 µM
TGI [20]: 9.86 µM
GI50 [21]: 2.9 µM
TGI [21]: 8.98 µM
GI50 [22]: 1.9 µM
TGI [22]: 11 µM
GI50 [23]: 3.19 µM
TGI [23]: 12.1 µM
GI50 [24]: 2.77 µM
TGI [24]: 10.2 µM
GI50 [25]: 3.87 µM
TGI [25]: 13.8 µM
GI50 [26]: 2.57 µM
TGI [26]: 6.72 µM
GI50 [27]: 2.92 µM
TGI [27]: 12.3 µM
GI50 [28]: 2.43 µM
TGI [28]: 7.51 µM
GI50 [29]: 1.86 µM
TGI [29]: 5.52 µM
GI50 [30]: 3.28 µM
TGI [30]: 15.1 µM
GI50 [31]: 1.94 µM
TGI [31]: 7.48 µM
GI50 [32]: 2.32 µM
TGI [32]: 7.31 µM
GI50 [33]: 2.98 µM
TGI [33]: 9.87 µM
GI50 [34]: 2.9 µM
TGI [34]: 12.2 µM
GI50 [35]: 1.27 µM
TGI [35]: 4.43 µM
GI50 [36]: 2.34 µM
TGI [36]: 6.05 µM
GI50 [37]: 2.87 µM
TGI [37]: 12.4 µM
GI50 [38]: 3.24 µM
TGI [38]: 13.1 µM
GI50 [39]: 3.23 µM
TGI [39]: 14.1 µM
GI50 [40]: 3.73 µM
TGI [40]: 15.2 µM
GI50 [41]: 2.47 µM
TGI [41]: 8.91 µM
GI50 [42]: 3.14 µM
TGI [42]: 14.5 µM
GI50 [43]: 2.86 µM
TGI [43]: 9.06 µM
GI50 [44]: 3.3 µM
TGI [44]: 11.2 µM
GI50 [45]: 1.39 µM
TGI [45]: 4.01 µM
GI50 [46]: 1.66 µM
TGI [46]: 3.11 µM
GI50 [47]: 2.34 µM
TGI [47]: 18 µM
GI50 [48]: 2.73 µM
TGI [48]: 11 µM
GI50 [49]: 2.04 µM
TGI [49]: 4.66 µM
GI50 [50]: 1.93 µM
TGI [50]: 7.5 µM
GI50 [51]: 2.24 µM
TGI [51]: 5.7 µM
GI50 [52]: 1.53 µM
TGI [52]: 4.89 µM
GI50 [53]: 2.24 µM
TGI [53]: 14 µM
GI50 [54]: 2.75 µM
TGI [54]: 7.87 µM
GI50 [55]: 2.92 µM
TGI [55]: 10.6 µM
GI50 [56]: 2.23 µM
TGI [56]: 6.78 µM
GI50 [57]: 3.71 µM
TGI [57]: 13.7 µM
